From US20160185774A1, “Anti-Infective Compounds” (priority 2013, published 2016)
Converted amounts (≈) assume the structure as drawn.

Key:
M. tuberculosis = test: microbe, parasite or virus in culture; type: cell-based; conditions: Mycobacterium tuberculosis, 120 h; read-out: QUM (MIC80)
M. tuberculosis H37Rv = test: In vivo activity in a murine model of acute tuberculosis infection (lung CFU); conditions: 50 mg/kg orally once daily, 3 days of treatment starting at day 6, female BalbC mice
Experimental: The effect of compounds 171 and 175 on the bacterial load of TB-infected mice was compared to that of the reference compound Isoniazid (INH). 8-week old female BalbC mice were infected with 8×10^6 M. tuberculosis H37Rv via intranasal inoculation. Mice were sacrificed at day 1 to control the number of CFU in the lungs. In the acute model of infection, mice were treated for 3 days, starting at day 6. Compounds were freshly dissolved in a 20% d-α-tocopheryl polyethylene glycol 1000 succinate (ETPGS) solution and administered by oral gavage as single dose per day. Bacterial load was assessed in lungs after homogenizing the organs in 1×PBS. Serial dilutions of organs homogenates were spread on Middlebrook 7H11 plates and CFU were determined after 3 weeks incubation at 37° C. under 5% CO2.

Row | Compound | melting point | MIC80 (M. tuberculosis) | CFU in the lungs compared to untreated mice (M. tuberculosis H37Rv)
1 | CCc1nc2ccc(Cl)cn2c1C(=O)NCc1cc2cc(Cl)ccc2s1 [Compound 256] | > 220 °C | < 1 µM | –
2 | CCc1nc2ccc(Cl)cn2c1C(=O)NCc1cccc(N2CCN(c3ccc(OC(F)(F)F)cc3)CC2)c1 [Compound 251] | > 168 °C (dec.) | 1 to 20 µM (≈ 0.558 to 11.2 µg/mL) | –
3 | CCc1nc2cc(Cl)ccn2c1C(=O)NCc1ccc(CC2CCOCC2)cc1 [Compound 254] | > 125.9 °C (dec.) | < 1 µM | –
4 | CCc1nc2cc(Cl)ccn2c1C(=O)NCc1nc2cc(-c3ccc(OC(F)(F)F)cc3)ccc2o1 [Compound 265] | > 220 °C | 1 to 20 µM (≈ 0.515 to 10.3 µg/mL) | –
5 | CCc1nc2ccc(Cl)cn2c1C(=O)NCc1cccc(CC(=O)Nc2ccc(F)cc2)c1 [Compound 250] | > 198.8 °C (dec.) | > 20 µM | –
6 | CCc1nc2ccc(Cl)cn2c1C(=O)NCc1ccc(C2CCOCC2)cc1 [Compound 258] | > 195.5 °C (dec.) | < 1 µM | –
7 | CCc1nc2ccc(Cl)cn2c1C(=O)NCc1cccc(N2CCC(c3ccc(OC(F)(F)F)cc3)CC2)c1 [Compound 249] | 135.5 to 136.4 °C | > 20 µM | –
8 | CCc1nc2ccc(Cl)cn2c1C(=O)NCc1nc2ccc(Cl)cc2o1 [Compound 264] | 201.1 to 201.8 °C | 1 to 20 µM (≈ 0.389 to 7.78 µg/mL) | –
9 | COc1ccc2nc(C)c(C(=O)NCc3ccc(N4CCC(c5ccc(C(F)(F)F)cc5)CC4)cc3)n2c1 [Compound 291] | 207 °C | < 1 µM | –
10 | CCc1nc2c(F)cccn2c1C(=O)NCc1ccc(N2CCC(c3ccc(OC(F)(F)F)cc3)CC2)cc1 [Compound 268] | > 177.7 °C (dec.) | < 1 µM | –
11 | CCc1nc2cc(Cl)ccn2c1C(=O)NCc1nc2ccc(-c3ccc(OC(F)(F)F)cc3)cc2o1 [Compound 269] | > 220 °C | < 1 µM | –
12 | CCc1nc2cc(F)ccn2c1C(=O)NCc1ccc(N2CCC(c3ccc(OC(F)(F)F)cc3)CC2)cc1 [Compound 175] | – | < 1 µM | reduction of CFU compared to untreated mice
13 | CCc1nc2ccc(F)cn2c1C(=O)NCc1ccc(N2CCC(c3ccc(OC(F)(F)F)cc3)CC2)cc1 [Compound 267] | > 167.9 °C (dec.) | < 1 µM | –
14 | Cc1ccc2nc(C)c(C(=O)NCc3ccc(N4CCC(c5ccc(Cl)cc5)CC4)cc3)n2c1 [Compound 294] | 188 °C | < 1 µM | –
15 | COc1ccc2nc(C)c(C(=O)NCc3ccc(N4CCC(c5ccc(F)cc5)CC4)cc3)n2c1 [Compound 289] | 192 °C | < 1 µM | –
16 | Cc1ccc2nc(C)c(C(=O)NCc3ccc(N4CCC(c5ccc(F)cc5)CC4)cc3)n2c1 [Compound 293] | 181 °C | < 1 µM | –
17 | CCc1nc2ccc(Cl)cn2c1C(=O)NCc1cccc(N(C)Cc2ccc(OC(F)(F)F)cc2)c1 [Compound 247] | > 142.3 °C (dec.) | 1 to 20 µM (≈ 0.517 to 10.3 µg/mL) | –
18 | COc1ccc2nc(C)c(C(=O)NCc3ccc(N4CCC(c5ccc(C)cc5)CC4)cc3)n2c1 [Compound 290] | 178 °C | < 1 µM | –
19 | CCc1nc2ccccn2c1C(=O)NCc1ccc(N(C)c2ccc(OC(F)(F)F)cc2)cc1 [Compound 288] | 120 °C | < 1 µM | –

Row | Compound | melting point | MIC80 (M. tuberculosis) | CFU in the lungs compared to untreated mice (M. tuberculosis H37Rv)
20 | CCc1nc2ccc(Cl)cn2c1C(=O)NCc1ccc(N(C)c2ccc(OC(F)(F)F)cc2)cc1 [Compound 286] | 138 °C | < 1 µM | –
21 | CCc1nc2ccc(Cl)cn2c1C(=O)NCc1nc2ccc(Cl)cc2n1C [Compound 262] | > 220 °C | > 20 µM | –
22 | CCc1nc2ccc(Cl)cn2c1C(=O)NCc1ccc(CC2CCOCC2)cc1 [Compound 253] | 132.2 to 133 °C | < 1 µM | –
23 | CCc1nc2cc(Cl)ccn2c1C(=O)NCc1ccc(N2CC(Cc3ccc(F)cc3)OC2=O)cc1 (stereo not shown) [Compound 270] | > 96.9 °C (dec.) | < 1 µM | –
24 | CCc1nc2ccc(Cl)cn2c1C(=O)NCc1cc2cc(Cl)ccc2o1 [Compound 261] | 223.5 to 225.6 °C | < 1 µM | –
25 | CCc1nc2ccccn2c1C(=O)NCc1ccc(C2CCOCC2)cc1 [Compound 257] | > 133.7 °C (dec.) | < 1 µM | –
26 | COc1ccc2nc(C)c(C(=O)NCc3ccc(N4CCC(c5ccc(OC(F)(F)F)cc5)CC4)cc3)n2c1 [Compound 292] | 183 °C | < 1 µM | –
27 | CCc1nc2ccc(Cl)cn2c1C(=O)NCc1nc2ccc(Cl)cc2s1 [Compound 266] | > 220 °C | 1 to 20 µM (≈ 0.405 to 8.11 µg/mL) | –
28 | Cc1ccc2nc(C)c(C(=O)NCc3ccc(N4CCC(c5ccc(OC(F)(F)F)cc5)CC4)cc3)n2c1 [Compound 296] | 184 °C | < 1 µM | –
29 | COc1ccc(C2CCN(c3ccc(CNC(=O)c4c(C)nc5ccc(C)cn45)cc3)CC2)cc1 [Compound 295] | 184 °C | < 1 µM | –
30 | CCc1nc2ccc(Cl)cn2c1C(=O)NCc1cccc(OCc2ccc(OC(F)(F)F)cc2)c1 [Compound 248] | > 142.7 °C (dec.) | 1 to 20 µM (≈ 0.504 to 10.1 µg/mL) | –
31 | CCc1nc2cc(Cl)ccn2c1C(=O)NCc1ccc(CN2CCOCC2)cc1 [Compound 285] | 107 °C | < 1 µM | –
32 | CCc1nc2cc(Cl)ccn2c1C(=O)NCc1ccc(N(C)c2ccc(OC(F)(F)F)cc2)cc1 [Compound 287] | 134 °C | < 1 µM | –
33 | CCc1nc2ccc(Cl)cn2c1C(=O)NCc1cccc(N2CCC(Oc3ccc(OC(F)(F)F)cc3)CC2)c1 [Compound 255] | 126.3 to 127.2 °C | > 20 µM | –
34 | CCc1nc2cc(Cl)ccn2c1C(=O)NCc1ccc(N2CC(COc3ccc(F)cc3)OC2=O)cc1 (stereo not shown) [Compound 271] | > 97.1 °C | 1 to 20 µM (≈ 0.523 to 10.5 µg/mL) | –
35 | CCc1nc2cc(C)ccn2c1C(=O)NCc1ccc(N2CCC(c3ccc(OC(F)(F)F)cc3)CC2)cc1 [Compound 171] | – | < 1 µM | reduction of CFU compared to untreated mice
36 | CCc1nc2ccc(Cl)cn2c1C(=O)NCc1nc2cc(Cl)ccc2n1C [Compound 263] | > 220 °C | > 20 µM | –
37 | CCc1nc2cc(Cl)ccn2c1C(=O)NCc1ccc(CN2CCOC2=O)cc1 [Compound 283] | 172 °C | 1 to 20 µM (≈ 0.413 to 8.26 µg/mL) | –
38 | CCc1nc2ccc(Cl)cn2c1C(=O)NCc1ccc(CN2CCOC2=O)cc1 [Compound 282] | 179 °C | 1 to 20 µM (≈ 0.413 to 8.26 µg/mL) | –
